This is an account of results in patent US20110183978A1, “Phenylpyri(mi)dinylazoles” (Bayer CropScience AG, priority 2009, published 2011).

Molecules are shown by their SMILES.

The subject of assay [1] is Rhynchosporium secalis. Briefly: Example S: in vivo test on Rhynchosporium secalis (leaf scald in barley/protective). Conditions: 336 h, barley, protective, 1000 ppm active substance, assessed 14 days after inoculation, read-out: % Wirkungsgrad (activity level). In a few lines: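 Protective test: young barley plants were sprayed with active substance in dimethylacetamide/alkylaryl polyglycol ether emulsion diluted with water. Once dry, plants were inoculated with R. secalis spore suspension. Assessment was made 14 days after inoculation.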

Assay [2] relates to Mycosphaerella graminicola. Put plainly: Example G: in vivo test on Mycosphaerella graminicola (wheat leaf blotch disease). Conditions: Zymoseptoria tritici, wheat plants sprayed 24 hours before inoculation, scored after 21 to 28 days, read-out: % Wirkungsgrad. In a few lines: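 Scipion wheat at first-leaf stage (10 cm) was sprayed with aqueous active-substance suspension, then inoculated 24 hours later with Mycosphaerella graminicola spores (500,000 spores per ml) from 7 day-old culture. Disease was scored after 21 to 28 days against untreated sprayed controls.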

In assay [3] the test system is Pyricularia grisea. Type of assay: in vivo. The note with it: 500 ppm; rice plants sprayed 24 hours before inoculation; scored after 6 days.

On to `CC(C)C(=O)Nc1cc(-c2cn(C(C)C)nc2-c2ccc(F)cc2)ccn1` [Compound 84], for which, in assay [1], the pest or weed control at 1000 ppm came to 90%. Further, the pest or weed control at 500 ppm in assay [2] is 98%. In the case of `CC(C)Cn1cc(-c2ccncc2)c(-c2ccc(F)cc2)n1` [Compound 1], in assay [3], the “% Activity level” value worked out at 82%. As to `CC(C)n1cc(-c2ccnc(NC(=O)C3CC3)c2)c(-c2ccc(F)cc2)n1` [Compound 86], the pest or weed control at 1000 ppm in assay [1] is 86%. For the same compound, the pest or weed control at 500 ppm in assay [2] was found to be 94%.
